From patent EP0606463B1, “NEUROMEDIN B RECEPTOR ANTAGONISTS” (The Administrators of The Tulane Educational Fund, priority 1992, dated 1994)
Where a SMILES comes first, the peptide text is derived from it. Bridges are numbered along the chain shown (N, C = ends). Where no end group is shown, it is not given here. [ ]: non-standard residue; d: D form. 2Nal = N[C@@H](Cc1ccc2ccccc2c1)C(=O)O; d2Nal = N[C@H](Cc1ccc2ccccc2c1)C(=O)O; Lys(Et2) = CCN(CC)CCCC[C@H](N)C(=O)O

Tests used:
[1] = biological target: T1, rat NMB receptor (Rattus norvegicus, UniProt P24053); assay: Binding of 125I-[D-Tyr0]NMB to NMB-R transfected BALB 3T3 cells; details: for fold by which cyclo SS-octa was more potent than the analog: inhibition of ^125I-[Tyr^0]NMB binding to NMB-R transfected cells; for decrease in NMB receptor affinity compared with #1: structure-function comparison of Table 1 values
T1 construct: a full length NMB-preferring bombesin receptor clone generated from rat esophagus; expressed in transfected cells; host or cells: BALB 3T3 cells
T1 sequence (P24053 1-390): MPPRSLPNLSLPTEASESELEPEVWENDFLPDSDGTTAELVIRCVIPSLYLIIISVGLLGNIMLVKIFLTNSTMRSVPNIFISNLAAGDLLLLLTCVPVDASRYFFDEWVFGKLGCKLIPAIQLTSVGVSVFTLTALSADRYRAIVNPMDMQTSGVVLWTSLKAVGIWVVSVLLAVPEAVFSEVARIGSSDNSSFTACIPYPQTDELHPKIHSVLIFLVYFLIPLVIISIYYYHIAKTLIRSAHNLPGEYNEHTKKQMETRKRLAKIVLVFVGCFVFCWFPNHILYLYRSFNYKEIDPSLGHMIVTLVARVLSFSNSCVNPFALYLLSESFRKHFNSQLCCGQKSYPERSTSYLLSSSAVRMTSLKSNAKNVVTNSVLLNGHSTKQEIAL
Procedure: (§1) Cells were passaged every 3-4 days at confluence, using 0.1% trypsin in 1 mM EDTA. Rat glioblastoma C-6 tumor cells were maintained similarly and were passaged weekly at confluence. Both cell lines were cultured at 37°C in a 5% CO2 atmosphere. Rat AR 42J pancreatic acinar cells were cultured in Dulbecco's modified Eagle's medium (DMEM) without antibiotics and supplemented with 10% (vol/vol) fetal calf serum. The incubation atmosphere consisted of 10% CO2-90% humidified air at 37°C.

[2] = biological target: T2, NMB Receptor (Rattus norvegicus, UniProt P24053); assay: [3H]inositol phosphates (IP) in NMB-R transfected cells; assay type: cell-based; details: for NMB-R Transfected Cells [^3H]IP Alone (10 µ M): analog 10 µM alone, no-additive control 13 ± 3; for NMB-R Transfected Cells [^3H]IP Plus NMB (3 nM): analog 10 µM plus NMB 3 nM, NMB without analog 186 ± 58; for effect on NMB-stimulated increase in [^3H]IP: NMB-R transfected cells, 3 nM NMB, peptide 10 µM
T2 construct: a full length NMB-preferring bombesin receptor clone generated from rat esophagus; expressed in transfected cells; host or cells: BALB 3T3 cells
T2 sequence (P24053 1-390): T1 sequence (P24053 1-390)
Procedure: as §1, with “As described previously [Wada, E., et al. Neuron 6:421 (1991)], BALB 3T3 cells expressing a stably transfected rat NMB receptor (NMB-R transfected cells) were obtained using calcium phosphate precipitation of a full length NMB-preferring bombesin receptor clone generated from rat esophagus and subcloned into a modified version of the pCD2 plasmid. Cells” for “Cells”
(§2) Total phosphoinositides in C-6 cells and in NMB-R transfected cells were determined as described previously, with minor modifications [Benya, R. V. et al. Mol. Pharmacol. 42:1058 (1992); and Wang, L-H. et al. Biochem. J. 286:641 (1992)]. Cells were grown to confluence in 24-well plates and then loaded with 100 µCi/ml myo-[2-^3H]inositol in Dulbecco's modified essential medium with 2% fetal bovine serum at 37°C for 48 hrs. Cells were washed and incubated in phosphoinositide buffer (standard buffer additionally containing 10 mM LiCl, 20 mM HEPES, 2 mM CaCl2, 2% BSA, and 1.2 mM MgSO4) for 15 min and then for 60 min at 37°C with agonists at various concentrations or with 3 nM NMB (a half-maximal effective concentration) and possible antagonists at different concentrations. Reactions were halted using ice-cold 1% HCl in methanol, and the inositol phosphates (IP) were isolated as described previously [Bologna, M. et al. Cancer 63:1714 (1989); and Endo, T. et al. J. Endocrinol. 131:313 (1991)]. Briefly, after loading of the anion exchange column, free [^3H]glycerophosphorylinositol was removed by washing with 5 mM disodium tetraborate in 60 mM sodium formate. Total [^3H]inositol phosphates were then eluted using 100 mM formic acid in 1.0 M ammonium formate as described previously [Benya, R. V. et al. Mol. Pharmacol. 42:1058 (1992); and Wang, L-H. et al. Biochem. J. 286:641 (1992)].

[3] = biological target: T3, GRP Receptor (Rattus norvegicus, UniProt P52500); assay: Amylase release from rat pancreatic acini; assay type: cell-based; details: for Rat Pancreatic Acini Amylase Release Alone (10µM): analog 10 µM alone, no-additive control 4 ± 1; for Rat Pancreatic Acini Amylase Release Plus Bn(0.3 nM): analog 10 µM plus Bn 0.3 nM, Bn without analog 15 ± 1
T3 construct: from tissue; host or cells: dispersed pancreatic acini
T3 sequence (P52500 whole entry): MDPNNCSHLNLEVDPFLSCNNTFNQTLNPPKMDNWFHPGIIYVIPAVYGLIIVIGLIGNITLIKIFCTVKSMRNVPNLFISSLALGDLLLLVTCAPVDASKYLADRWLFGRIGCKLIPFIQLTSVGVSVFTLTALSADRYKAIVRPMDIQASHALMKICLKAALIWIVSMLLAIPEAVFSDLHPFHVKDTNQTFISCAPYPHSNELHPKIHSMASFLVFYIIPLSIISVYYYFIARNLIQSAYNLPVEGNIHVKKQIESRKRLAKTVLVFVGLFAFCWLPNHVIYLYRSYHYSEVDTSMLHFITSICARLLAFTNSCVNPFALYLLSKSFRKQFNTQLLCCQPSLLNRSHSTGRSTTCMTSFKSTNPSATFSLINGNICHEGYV

[4] = biological target: T4, NMB receptors on C-6 glioblastoma cells (Rattus norvegicus, UniProt P24053); assay: NMB-stimulated [3H]IP in C-6 glioblastoma cells; assay type: cell-based
T4 construct: endogenous in cells; host or cells: rat glioblastoma C-6 cells
T4 sequence (P24053 1-390): T1 sequence (P24053 1-390)
Procedure: as §2, with “for 60 min at 37°C with agonists at various concentrations or with 3 nM NMB (a half-maximal effective concentration) and possible antagonists at different concentrations.” left out

[5] = test system: endothelin-1-simulated increases in [^3H]IP; assay: Endothelin-1-stimulated [3H]IP in C-6 glioblastoma cells; assay type: cell-based, rat
Procedure: as §2

[6] = biological target: T5, NMB receptors on rat olfactory bulb membranes (Rattus norvegicus, UniProt P24053); assay: NMB membrane receptor assay (rat olfactory bulb membranes); assay type: binding
T5 construct: Membranes were prepared from rat olfactory bulb (NMB membrane receptor assay); from tissue; host or cells: rat olfactory bulb membranes
T5 sequence (P24053 1-390): T1 sequence (P24053 1-390)

| Compound | fold by which cyclo SS-octa was more potent than the analog [1] | decrease in NMB receptor affinity compared with #1 [1] | NMB-R Transfected Cells [^3H]IP Alone (10 µ M) [2] | NMB-R Transfected Cells [^3H]IP Plus NMB (3 nM) [2] | Rat Pancreatic Acini Amylase Release Alone (10µM) [3] | Rat Pancreatic Acini Amylase Release Plus Bn(0.3 nM) [3] | [^3H]IP, Peptide Added NMB (10 nM) ([4]; C-6 glioblastoma cells, analog 10 µM plus NMB 10 nM) | [^3H]IP, Peptide Added None ([4]; C-6 glioblastoma cells, analog 10 µM, no agonist, control 7.2±1.0) | effect on NMB-stimulated increases in [^3H]IP in C-6 glioblastoma cells ([4]; Table 3) | [^3H]IP, Peptide Added ET-1 (0.1 nM) ([5]; C-6 glioblastoma cells, analog 10 µM plus ET-1 0.1 nM) | effect on endothelin-1-simulated increases in [^3H]IP in C-6 cells ([5]; Table 3) | effect on NMB-stimulated increase in [^3H]IP [2] | fold greater affinity for NMB receptors than mu opioid receptors ([6]; rat olfactory bulb versus rat forebrain membranes (Table 4)) | fold higher affinity for NMB receptors than somatostatin receptors ([6]; rat olfactory bulb versus AR 42J membranes (Table 4)) | fold greater affinity for the NMB than the GRP receptors ([1]; NMB-R transfected cells versus GRP receptors on rat pancreatic acini) | [^3H]IP, ET-1 (0.1 nM) Alone ([5]; C-6 glioblastoma cells, agonist without analog, basal 7.2±1.0) |
| --- | --- | --- | --- | --- | --- | --- | --- | --- | --- | --- | --- | --- | --- | --- | --- | --- |
| C[C@@H](O)[C@H](NC(=O)[C@@H]1CSSC[C@H](NC(=O)[C@H](N)Cc2ccc3ccccc3c2)C(=O)N[C@@H](Cc2ccc(O)cc2)C(=O)N[C@H](Cc2c[nH]c3ccccc23)C(=O)N[C@@H](CCCCN)C(=O)N[C@@H](Cc2ccc3ccccc3c2)C(=O)N1)C(N)=O [Analog #2, [Nal^6,Thr^8]-cyclo SS-octa] | 4 fold | 4 fold | 11 ± 2 dpm x 10^3 | 39 ± 7 dpm x 10^3 | 5 ± 1 % total | 13 ± 1 % total | 14.3 ± 4.2 dpm x 10^3 | 7.3±1.2 dpm x 10^3 | inhibited | 11.2±1.9 dpm x 10^3 | had no effect | – | – | – | – | – |
| CC(C)[C@@H]1NC(=O)[C@H](CCCCN)NC(=O)[C@@H](Cc2c[nH]c3ccccc23)NC(=O)[C@H](Cc2ccc(O)cc2)NC(=O)[C@@H](NC(=O)[C@H](N)Cc2ccc3ccccc3c2)CSSC[C@H](C(=O)N[C@@H](Cc2ccc3ccccc3c2)C(N)=O)NC1=O [Analog #11, [D-Cys^7]-cyclo SS-octa] (H-[d2Nal]CY[dW]KV[dC][2Nal]-NH2; disulfide 2-7; N-terminus assumed) | 6 fold | 5 fold | 10 ± 1 dpm x 10^3 | 7 ± 4 dpm x 10^3 | 2 ± 1 % total | 14 ± 1 % total | – | – | – | – | – | completely inhibited | > 50 fold | – | – | – |
| CC(C)[C@@H]1NC(=O)[C@H](Cc2c[nH]cn2)NC(=O)[C@@H](Cc2c[nH]c3ccccc23)NC(=O)[C@H](Cc2ccc(O)cc2)NC(=O)[C@@H](NC(=O)[C@H](N)Cc2ccc3ccccc3c2)CSSC[C@@H](C(=O)N[C@@H](Cc2ccc3ccccc3c2)C(N)=O)NC1=O [Analog #14, [His^5]-cyclo SS-octa] (H-[d2Nal]CY[dW]HVC[2Nal]-NH2; disulfide 2-7; N-terminus assumed) | 45 fold | 50 fold | 8 ± 1 dpm x 10^3 | 97 ± 7 dpm x 10^3 | 2 ± 1 % total | 13 ± 1 % total | – | – | – | – | – | – | – | 3 fold | – | – |
| CCN(CC)CCCC[C@@H]1NC(=O)[C@@H](Cc2c[nH]c3ccccc23)NC(=O)[C@H](Cc2ccc(O)cc2)NC(=O)[C@@H](NC(=O)[C@H](N)Cc2ccccc2)CSSC[C@@H](C(=O)N[C@@H](Cc2ccc3ccccc3c2)C(N)=O)NC(=O)[C@H]([C@@H](C)O)NC1=O [Analog #16, [D-Phe^1, Lys(diEt)^5, Thr^6] cyclo SS-octa] (H-[dF]CY[dW][Lys(Et2)]TC[2Nal]-NH2; disulfide 2-7; N-terminus assumed) | 18 fold | – | 11 ± 2 dpm x 10^3 | 73 ± 15 dpm x 10^3 | 5 ± 1 % total | 12 ± 1 % total | – | – | – | – | – | – | – | – | – | – |
| CC(C)[C@@H]1NC(=O)[C@H](CCCCN)NC(=O)[C@@H](Cc2ccc3ccccc3c2)NC(=O)[C@H](Cc2ccc(O)cc2)NC(=O)[C@@H](NC(=O)[C@H](N)Cc2ccc3ccccc3c2)CSSC[C@@H](C(=O)N[C@@H](Cc2ccc3ccccc3c2)C(N)=O)NC1=O [Analog #17, [D-Nal^4]-cyclo SS-octa] (H-[d2Nal]CY[d2Nal]KVC[2Nal]-NH2; disulfide 2-7; N-terminus assumed) | 2 fold | almost no effect on affinity | 12 ± 4 dpm x 10^3 | 15 ± 2 dpm x 10^3 | 4 ± 2 % total | 19 ± 1 % total | – | – | – | – | – | completely inhibited | – | – | > 100 fold | – |
| endothelin 1 (CSCSSLMDKECVYFCHLDIIW; disulfide 1-15, 3-11; ends not checked; UniProt P05305 53-73, looked up) [ET-1, agonist from Peninsula Laboratories, reference compound] | – | – | – | – | – | – | – | – | – | – | – | – | – | – | – | 11.0±2.1 dpm x 10^3 |
